The source of these data is PubChem BioAssay (NCI).

Test systems include 786-0 renal; A498 renal; HCT-15 colon; HOP-62 NSCLC; HOP-92 NSCLC; HS 578T breast; KM12 colon; M14 melanoma; MCF7 breast; MOLT-4 leukemia; OVCAR-3 ovarian; OVCAR-4 ovarian; PC-3 prostate; NCI-H460 lung.
Holding throughout (test): growth of human tumour cells (NCI), 48 h

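Dose response: 5 concentrations. Exposure: 48 h. Format: 96-well plates. Endpoint: linear interpolation; highest concentration if not reached. TGI marks complete inhibition of growth.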

Turning to `Cc1ccc2nc(N/N=C/c3sccc3C)cc(C)c2c1`, the TGI in the test with 786-0 renal, in the test on A498 renal, in the test with HCT-15 colon, in the test on HOP-62 NSCLC, in the test on HOP-92 NSCLC and in the test with HS 578T breast was over 100 µM each time. Further, the TGI with KM12 colon, in the test on M14 melanoma, in the test with MCF7 breast, with MOLT-4 leukemia, in the test on OVCAR-3 ovarian and in the test on OVCAR-4 ovarian was over 100 µM throughout. This compound showed a TGI with PC-3 prostate of over 100 µM.
For `C[C@]12C[C@@H](OC(=O)[C@]1(C)O)[C@@H]([C@]1(O)CC[C@H]3[C@@H]4C[C@H]5O[C@]56C[C@H]5O[C@H]5C(=O)[C@]6(C)[C@H]4CC[C@@]31C)C2`, the TGI in the test with 786-0 renal, in the test on A498 renal, in the test on HCT-15 colon, with HOP-62 NSCLC, in the test with HOP-92 NSCLC and in the test with HS 578T breast was over 50 µM in each case. In addition, the TGI in the test with KM12 colon, in the test with M14 melanoma, in the test on MCF7 breast, in the test on MOLT-4 leukemia, in the test on NCI-H460 lung and in the test with OVCAR-4 ovarian was over 50 µM throughout. The same compound came in with a TGI with PC-3 prostate of over 50 µM.
`CC1(C)CNCC(C)(OCc2ccccc2)C(=O)NC(C)(C)CNCC(C)(OCc2ccccc2)C(=O)N1` (stereo not drawn): the TGI is over 10 µM in the test with 786-0 renal; over 10 µM in the test on A498 renal; over 10 µM in the test with HCT-15 colon; over 10 µM in the test with HOP-62 NSCLC; 4.8 µM with HOP-92 NSCLC; over 10 µM in the test on HS 578T breast. Also, the TGI with KM12 colon, in the test on M14 melanoma, in the test with MCF7 breast, with MOLT-4 leukemia, in the test on NCI-H460 lung and in the test with OVCAR-3 ovarian was over 10 µM each time. Besides, the TGI in the test on PC-3 prostate was over 10 µM.
As to `CCCCc1ccc(-n2sc3ncc(C)cc3c2=O)cc1`, the TGI with 786-0 renal is over 100 µM; in the test on HCT-15 colon, 59.1 µM; in the test with HOP-62 NSCLC, over 100 µM; with HOP-92 NSCLC, 87.5 µM; in the test on HS 578T breast, over 100 µM; in the test on KM12 colon, over 100 µM. Besides, the TGI was 29.4 µM in the test with M14 melanoma; 34.3 µM in the test on MCF7 breast; over 100 µM in the test on MOLT-4 leukemia; over 100 µM with NCI-H460 lung; 47.8 µM with OVCAR-3 ovarian; over 100 µM with OVCAR-4 ovarian. In addition, the TGI in the test with PC-3 prostate was 28.2 µM.
`CCOC(=O)c1nc2cc(C(F)(F)F)ccc2nc1Nc1ccc(OC)cc1`: the TGI with 786-0 renal, with A498 renal, in the test with HCT-15 colon, in the test on HOP-62 NSCLC, with HOP-92 NSCLC and in the test on HS 578T breast was over 100 µM each time. In addition, the TGI with KM12 colon, in the test with M14 melanoma, in the test with MCF7 breast, with MOLT-4 leukemia, in the test on OVCAR-3 ovarian and in the test with PC-3 prostate was over 100 µM each time.
Take `O=[N+]([O-])c1ccc(-c2nc3ccc(Cl)cc3[nH]2)cc1`: the TGI with 786-0 renal, in the test on HCT-15 colon, in the test on HOP-62 NSCLC, in the test with HOP-92 NSCLC, in the test with HS 578T breast and in the test on M14 melanoma was over 100 µM in each case. In addition, the TGI in the test on MCF7 breast, with MOLT-4 leukemia, with NCI-H460 lung, in the test with OVCAR-3 ovarian, in the test with OVCAR-4 ovarian and in the test on PC-3 prostate was over 100 µM throughout.
For the compound `COc1ccc2c(c1)c1c(n2CCN(C)C)-c2ccccc2CC1`, the TGI in the test on 786-0 renal worked out at 30.4 µM; in the test on HCT-15 colon, 26.8 µM; with HOP-62 NSCLC, 30.5 µM; in the test on HOP-92 NSCLC it was 31 µM; with HS 578T breast, 34.2 µM; with KM12 colon it was 28 µM. Also, the TGI in the test on M14 melanoma was 29.3 µM; with MCF7 breast it was 35.1 µM; in the test on MOLT-4 leukemia, 35.8 µM; with NCI-H460 lung, 30.8 µM; in the test on OVCAR-3 ovarian, 30.9 µM; in the test on OVCAR-4 ovarian, 31.4 µM. This compound gave a TGI in the test on PC-3 prostate of 25.2 µM.
Take `CCOC(=O)C1(C(=O)OCC)[C@@H](c2ccccc2)C2=NO[C@@H]3CCC[C@H]1[C@H]23`: the TGI with 786-0 renal, in the test on HCT-15 colon, in the test on HOP-62 NSCLC, in the test on HOP-92 NSCLC, in the test with HS 578T breast and in the test with KM12 colon was over 100 µM in each case. Besides, the TGI in the test with M14 melanoma, in the test on MCF7 breast, with MOLT-4 leukemia, in the test on NCI-H460 lung, in the test with OVCAR-3 ovarian and in the test with OVCAR-4 ovarian was over 100 µM in each case. In the test on PC-3 prostate, this compound registered a TGI of over 100 µM.
Take `COc1ccc(OC)c(N(CN2C(=O)CCC2C(=O)O)C(C)=O)c1` (stereo not drawn): the TGI in the test on 786-0 renal, in the test on A498 renal, in the test on HCT-15 colon, in the test with HOP-62 NSCLC, in the test with HOP-92 NSCLC and with HS 578T breast was over 100 µM in each case. Further, the TGI in the test with KM12 colon, with M14 melanoma, with MCF7 breast, with MOLT-4 leukemia, with OVCAR-3 ovarian and in the test with OVCAR-4 ovarian was over 100 µM each time. Also, the TGI with PC-3 prostate is over 100 µM.
For the compound `C=C1CC(c2ccc(OCCCN3C(=O)c4ccccc4C3=O)cc2)OC1=O` (stereo not drawn), the TGI in the test on 786-0 renal was determined as 5.23 µM; in the test with A498 renal, 3.56 µM; with HCT-15 colon it was 6.84 µM; in the test on HOP-62 NSCLC, 33.2 µM; with HOP-92 NSCLC, 2.99 µM; in the test with HS 578T breast, 20.4 µM. Also, the TGI in the test on KM12 colon stood at 16.8 µM; in the test with M14 melanoma, 9.09 µM; in the test with MCF7 breast, 6.46 µM; in the test on MOLT-4 leukemia, 4.06 µM; in the test on NCI-H460 lung it was 8.42 µM; in the test with OVCAR-3 ovarian, 5.31 µM. In the test on PC-3 prostate, the TGI is 10.9 µM.
